Source: US20060069132A1, “Azolecarboxamide herbicides” (priority 2004, published 2006)

Assays:
[1] = system: corn; test: Test B pre-/postemergence herbicide test; type: in vivo, Zea mays
Procedure, shortened: (§1)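 Formulation: non-phytotoxic solvent mix with surfactant. Timing: preemergence on seed and postemergence on 2–18 cm plants, applied concurrently. Readout after 13–15 d greenhouse: visual 0–100 control rating against controls.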

[2] = system: barnyardgrass; test: Test A pre-/postemergence herbicide test; type: in vivo, Echinochloa crus-galli
Procedure, shortened: (§2)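 Plants are held in greenhouse about ten days after treatment, then compared with untreated controls and scored 0 (no effect) to 100 (complete control). Preemergence dosing is a directed soil spray on sown sandy loam; postemergence dosing is spray to runoff at 2–10 cm height.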

[3] = system: velvetleaf; test: Test B pre-/postemergence herbicide test; type: in vivo, Abutilon theophrasti
Procedure, shortened: as §1

[4] = system: giant foxtail; test: Test B pre-/postemergence herbicide test; type: in vivo, Setaria faberi
Procedure, shortened: as §1

[5] = system: morningglory; test: Test A pre-/postemergence herbicide test; type: in vivo, Ipomoea spp.
Procedure, shortened: as §2

[6] = system: ducksalad; test: Test B flooded paddy test; type: in vivo, Heteranthera limosa; details: 1000 g ai/ha, visual rating, scale 0 to 100 (0 no effect, 100 complete control), 13 to 15 days
Procedure, shortened: (§3)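 Plants grow to 1- to 4-leaf stage (2–18 cm) for postemergence spraying, or to 2-leaf stage for the paddy test. Formulated compound is applied. Greenhouse holding lasts 13–15 days. Response is scored visually relative to controls, 0 no effect to 100 complete control; a dash means no result.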

[7] = system: barnyardgrass; test: Test B pre-/postemergence herbicide test; type: in vivo, Echinochloa crus-galli
Procedure, shortened: (§4)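 Species tested were Echinochloa crus-galli, Ipomoea coccinea, Xanthium strumarium and Oryza sativa, treated both before emergence and at the 1- to 4-leaf stage; rice and barnyardgrass were also tested under flooding at 2 leaves. Greenhouse incubation lasted 13–15 days before visual 0–100 scoring.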

[8] = system: large crabgrass; test: Test A pre-/postemergence herbicide test; type: in vivo, Digitaria sanguinalis
Procedure, shortened: as §2

[9] = system: wild oat; test: Test B postemergence herbicide test; type: in vivo, Avena fatua; details: scale 0 (no effect) to 100 (complete control)
Procedure, shortened: (§5)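 Formulated test chemicals went onto postemergence plants measuring 2 to 18 cm, at one to four leaves. For the paddy assay, species had reached two leaves. Scoring took place 13–15 days later by eye, relative to untreated plants, using 0 for no effect up to 100 for full control.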

[10] = system: rice; test: Test B pre-/postemergence herbicide test; type: in vivo, Oryza sativa; details: preemergence, 125 g ai/ha; 0 to 100 scale, 0 is no effect, 100 is complete control
Procedure, shortened: as §1

[11] = system: velvetleaf; test: Test A pre-/postemergence herbicide test; type: in vivo, Abutilon theophrasti
Procedure, shortened: as §2

[12] = system: wheat; test: Test B postemergence herbicide test; type: in vivo, Triticum aestivum; set-up: key to Wheat plant response rating: 0 = no effect, 100 = complete control; details: scale 0 (no effect) to 100 (complete control)
Procedure, shortened: as §5

[13] = system: pigweed; test: Test B pre-/postemergence herbicide test; type: in vivo, Amaranthus retroflexus
Procedure, shortened: as §1

[14] = system: barnyardgrass; test: Test B flooded paddy test; type: in vivo, Echinochloa crus-galli; details: 1000 g ai/ha, visual rating, scale 0 to 100 (0 no effect, 100 complete control), 13 to 15 days
Procedure, shortened: as §3

[15] = system: Surinam grass; test: Test B pre-/postemergence herbicide test; type: in vivo, Urochloa decumbens
Procedure, shortened: as §1

[16] = system: blackgrass; test: Test B postemergence herbicide test; type: in vivo, Alopecurus myosuroides; details: scale 0 (no effect) to 100 (complete control)
Procedure, shortened: as §3

[17] = system: lambsquarters; test: Test B pre-/postemergence herbicide test; type: in vivo, Chenopodium album
Procedure, shortened: as §1

[18] = system: cocklebur; test: Test B pre-/postemergence herbicide test; type: in vivo, Xanthium strumarium
Procedure, shortened: as §4

[19] = system: giant foxtail; test: Test A pre-/postemergence herbicide test; type: in vivo, Setaria faberi
Procedure, shortened: as §2

[20] = system: small flower umbrella sedge; test: Test B flooded paddy test; type: in vivo, Cyperus difformis; details: 1000 g ai/ha, visual rating, scale 0 to 100 (0 no effect, 100 complete control), 13 to 15 days
Procedure, shortened: as §3

[21] = system: morningglory; test: Test B pre-/postemergence herbicide test; type: in vivo, Ipomoea coccinea
Procedure, shortened: as §4

[22] = system: large crabgrass; test: Test B pre-/postemergence herbicide test; type: in vivo, Digitaria sanguinalis
Procedure, shortened: as §1

[23] = system: rice; test: Test B flooded paddy test; type: in vivo, Oryza sativa; details: 1000 g ai/ha, visual rating, scale 0 to 100 (0 no effect, 100 complete control), 13 to 15 days
Procedure, shortened: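 Scale 0–100: zero equals no visible effect, 100 complete control, judged by eye relative to controls. Timing: 13 to 15 days in greenhouse post-treatment. Growth stage at spraying: two leaves (paddy) or one to four leaves, 2–18 cm (postemergence).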

[24] = system: redroot pigweed; test: Test A pre-/postemergence herbicide test; type: in vivo, Amaranthus retroflexus
Procedure, shortened: as §2

[25] = Postemergence, 500 g ai/ha, visual rating after 13 to 15 days, scale 0 (no effect) to 100 (complete control)
[26] = Preemergence, 500 g ai/ha, scale 0 to 100
[27] = postemergence, 125 g ai/ha, visual rating, scale 0 (no effect) to 100 (complete control)
[28] = preemergence, 125 g ai/ha, 0 to 100 scale, 0 is no effect, 100 is complete control
[29] = Postemergence, 500 g ai/ha, 0 to 100 scale, 0 no effect, 100 complete control
[30] = Postemergence, 2000 g ai/ha, 0 to 100 scale, 0 no effect, 100 complete control
[31] = Preemergence, 500 g ai/ha, visual rating, 0 to 100 scale (0 no effect, 100 complete control)
[32] = Preemergence, 2000 g ai/ha, 0 to 100 scale, 0 no effect, 100 complete control
[33] = Postemergence, 500 g ai/ha, visual rating after 13 to 15 days
[34] = postemergence, 125 g ai/ha, visual rating

CCn1nc(C(C)(C)C)cc1C(=O)Nc1cccc(C(=O)OC)c1C [Compound 87]
Plant response rating, Corn [1, 25]: 0 | Corn plant response rating [1, 26]: 0 | Corn plant response rating [1, 27]: 0 | Plant response rating, Corn [1, 28]: 0 | Barnyardgrass plant response rating [2, 29]: 15 | Plant response rating, Barnyardgrass [2, 30]: 55 | Barnyardgrass plant response rating [2, 31]: 55 | Barnyardgrass plant response rating [2, 32]: 90 | Plant response rating, Velvetleaf [3, 25]: 0 | Velvetleaf plant response rating [3, 27]: 0 | Plant response rating, Velvetleaf [3, 28]: 0 | Plant response rating, Foxtail, Giant [4, 25]: 0 | Foxtail, Giant plant response rating [4, 26]: 80 | Foxtail, Giant plant response rating [4, 27]: 0 | Plant response rating, Foxtail, Giant [4, 28]: 10 | Morningglory plant response rating [5, 29]: 15 | Plant response rating, Morningglory [5, 30]: 20 | Morningglory plant response rating [5, 31]: 15 | Morningglory plant response rating [5, 32]: 15 | Ducksalad plant response rating [6]: 20 | Plant response rating, Barnyardgrass [7, 25]: 0 | Barnyardgrass plant response rating [7, 26]: 70 | Barnyardgrass plant response rating [7, 27]: 0 | Plant response rating, Barnyardgrass [7, 28]: 20 | Crabgrass, Large plant response rating [8, 29]: 20 | Plant response rating, Crabgrass, Large [8, 30]: 60 | Crabgrass, Large plant response rating [8, 31]: 90 | Crabgrass, Large plant response rating [8, 32]: 95 | Plant response rating, Oat, Wild [9, 33]: 0 | Oat, Wild plant response rating [9, 34]: 0 | Plant response rating, Rice [10]: 0 | Velvetleaf plant response rating [11, 29]: 10 | Plant response rating, Velvetleaf [11, 30]: 25 | Velvetleaf plant response rating [11, 31]: 25 | Velvetleaf plant response rating ([11]; Preemergence, 2000 g ai/ha, visual rating, 0 to 100 scale (0 no effect, 100 complete control)): 65 | Plant response rating, Wheat [12, 33]: 0 | Wheat plant response rating [12, 34]: 0 | Plant response rating, Pigweed [13, 25]: 0 | Pigweed plant response rating [13, 27]: 0 | Plant response rating, Pigweed [13, 28]: 40 | Barnyardgrass plant response rating [14]: 20 | Plant response rating, Surinam Grass [15, 25]: 0 | Surinam Grass plant response rating [15, 27]: 0 | Plant response rating, Surinam Grass [15, 28]: 0 | Plant response rating, Blackgrass [16, 33]: 0 | Blackgrass plant response rating [16, 34]: 0 | Plant response rating, Lambsquarters [17, 25]: 0 | Lambsquarters plant response rating [17, 27]: 0 | Plant response rating, Lambsquarters [17, 28]: 70 | Plant response rating, Cocklebur [18, 25]: 0 | Cocklebur plant response rating [18, 26]: 0 | Cocklebur plant response rating [18, 27]: 0 | Plant response rating, Cocklebur [18, 28]: 0 | Foxtail, Giant plant response rating [19, 29]: 20 | Plant response rating, Foxtail, Giant [19, 30]: 50 | Foxtail, Giant plant response rating [19, 31]: 35 | Foxtail, Giant plant response rating [19, 32]: 90 | Sedge, Umbrella plant response rating [20]: 80 | Plant response rating, Morningglory [21, 25]: 0 | Morningglory plant response rating [21, 27]: 0 | Plant response rating, Morningglory [21, 28]: 0 | Plant response rating, Crabgrass, Large [22, 25]: 60 | Crabgrass, Large plant response rating [22, 26]: 100 | Crabgrass, Large plant response rating [22, 27]: 0 | Plant response rating, Crabgrass, Large [22, 28]: 90 | Rice plant response rating [23]: 10 | Pigweed plant response rating [24, 29]: 10 | Plant response rating, Pigweed [24, 30]: 35 | Pigweed plant response rating [24, 31]: 60 | Pigweed plant response rating [24, 32]: 95
